# Assay results reported in patent US20250099557A1, “ANTIBIOTIC PHARMACEUTICAL COMPOSITION CAPABLE OF SUBCUTANEOUS ADMINISTRATION” (SHANGHAI BAO PHARMACEUTICALS CO., LTD., priority 2021, published 2025).
# Key:
# HAase = molecular target: T1, HAase (Homo sapiens, UniProt P38567); test: Compatibility study of HAase and antibiotic in solution: HAase activity; assay type: biochemical; settings: 15 min room temperature; for Final concentration of HAase (units/ml) 150: HAase added to 150 units/ml; for Final concentration of HAase (units/ml) 500: HAase added to 500 units/ml; for Final concentration of HAase (units/ml) 2000: HAase added to 2000 units/ml; for Final concentration of HAase (units/ml) 6000: HAase added to 6000 units/ml
# T1 construct: made in house
# T1 sequence (P38567 36-482): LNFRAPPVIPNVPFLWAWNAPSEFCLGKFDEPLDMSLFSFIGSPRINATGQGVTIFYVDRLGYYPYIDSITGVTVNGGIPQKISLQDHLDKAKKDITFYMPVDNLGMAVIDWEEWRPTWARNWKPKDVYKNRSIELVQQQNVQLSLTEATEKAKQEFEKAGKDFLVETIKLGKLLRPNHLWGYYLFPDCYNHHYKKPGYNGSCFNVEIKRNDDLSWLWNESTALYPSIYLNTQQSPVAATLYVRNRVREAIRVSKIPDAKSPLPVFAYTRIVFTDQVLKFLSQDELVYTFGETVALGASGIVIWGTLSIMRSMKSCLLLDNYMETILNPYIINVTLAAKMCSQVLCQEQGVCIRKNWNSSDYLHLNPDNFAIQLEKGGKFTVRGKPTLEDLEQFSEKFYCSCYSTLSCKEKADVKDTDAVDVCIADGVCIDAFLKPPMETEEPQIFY
# intestinal flora = test: Effects of administration routes on the diversity of intestinal flora in mice (16S rDNA sequencing, OTU); assay type: in vivo; settings: C57BL/6 mice, feces
# Text: 12 SPF grade C57BL/6 mice were used for each antibiotic mode, and divided into two groups, each having 6 mice. The two groups include an oral administration group, and a subcutaneous administration group combined with recombinant human HAase. A blank control group including 6 mice was also set. The mice in the oral administration group were given the model antibiotic solution by oral gavage for five consecutive days. The mice in the subcutaneous administration group combined with recombinant human HAase were given the same dose of model antibiotic as that in the oral administration group by subcutaneous administration for five consecutive days. The feces of mice in each group were collected on the 1 st, 2nd, 3rd, 4th, 5th, 6th, 8th, 10th and 14th days after five consecutive days of administration, and stored at −80° C., for detecting the microbial diversity later. The fecal samples of each group were amplified and sequenced by 16S rDNA sequencing. After DNA extraction, PCR amplification and gene sequencing, the changes of intestinal bacterial diversity in each group of mice were analyzed. The relative species diversity of the test group was calculated, with the OUT value of the blank control group in each day as a reference, as shown in Table 33.
# [1] = antibiotic 10 mg/ml in physiological saline
# [2] = antibiotic 70 mg/ml in physiological saline
substance,measurement,setting,value
Teicoplanin,Final concentration of HAase (units/ml) 150,HAase; [1],160 units/ml
same,Final concentration of HAase (units/ml) 500,HAase; [1],488 units/ml
same,Final concentration of HAase (units/ml) 2000,HAase; [1],1972 units/ml
same,Final concentration of HAase (units/ml) 6000,HAase; [1],6033 units/ml
same,Final concentration of HAase (units/ml) 150,HAase; [2],152 units/ml
same,Final concentration of HAase (units/ml) 500,HAase; [2],498 units/ml
same,Final concentration of HAase (units/ml) 2000,HAase; [2],1961 units/ml
same,Final concentration of HAase (units/ml) 6000,HAase; [2],5979 units/ml
same,interference with the activity of HAase,HAase; antibiotic and HAase in physiological saline,does not interfere with the activity of HAase
same,Relative abundance of OUT (operational taxonomic units),"intestinal flora; in combination with recombinant human HAase for subcutaneous administration, five consecutive days, D1 after administration",51.8%
same,Relative abundance of OUT (operational taxonomic units),"intestinal flora; in combination with recombinant human HAase for subcutaneous administration, five consecutive days, D2",56.0%
same,Relative abundance of OUT (operational taxonomic units),"intestinal flora; in combination with recombinant human HAase for subcutaneous administration, five consecutive days, D3",53.7%
same,Relative abundance of OUT (operational taxonomic units),"intestinal flora; in combination with recombinant human HAase for subcutaneous administration, five consecutive days, D4",56.3%
same,Relative abundance of OUT (operational taxonomic units),"intestinal flora; in combination with recombinant human HAase for subcutaneous administration, five consecutive days, D5",51.2%
same,Relative abundance of OUT (operational taxonomic units),"intestinal flora; in combination with recombinant human HAase for subcutaneous administration, five consecutive days, D6",55.4%
same,Relative abundance of OUT (operational taxonomic units),"intestinal flora; in combination with recombinant human HAase for subcutaneous administration, five consecutive days, D8",63.7%
same,Relative abundance of OUT (operational taxonomic units),"intestinal flora; in combination with recombinant human HAase for subcutaneous administration, five consecutive days, D10",64.8%
same,Relative abundance of OUT (operational taxonomic units),"intestinal flora; in combination with recombinant human HAase for subcutaneous administration, five consecutive days, D14",71.7%
same,Relative abundance of OUT (operational taxonomic units),"intestinal flora; oral administration for five consecutive days, D1 after administration",44.7%
same,Relative abundance of OUT (operational taxonomic units),"intestinal flora; oral administration for five consecutive days, D2",41.9%
same,Relative abundance of OUT (operational taxonomic units),"intestinal flora; oral administration for five consecutive days, D3",39.8%
same,Relative abundance of OUT (operational taxonomic units),"intestinal flora; oral administration for five consecutive days, D4",41.2%
same,Relative abundance of OUT (operational taxonomic units),"intestinal flora; oral administration for five consecutive days, D5",39.4%
same,Relative abundance of OUT (operational taxonomic units),"intestinal flora; oral administration for five consecutive days, D6",41.1%
same,Relative abundance of OUT (operational taxonomic units),"intestinal flora; oral administration for five consecutive days, D8",46.3%
same,Relative abundance of OUT (operational taxonomic units),"intestinal flora; oral administration for five consecutive days, D10",45.9%
same,Relative abundance of OUT (operational taxonomic units),"intestinal flora; oral administration for five consecutive days, D14",49.7%
